These results are taken from patent US20220332764A1, “T CELL EPITOPES OF HCMV AND USES OF THEREOF” (EBERHARD KARLS UNIVERSITÄT TÜBINGEN, priority 2019, published 2022).

The subject of the assay is PBMCs of healthy HCMV-seropositive donors. Put plainly: IFNγ ELISpot after 12 day stimulation (memory T-cell response). The settings on record: for % Positive donors (after 12 days of stimulation): IFNγ ELISpot, HLA-matched seropositive donors; for Positive donors as tested: positive / tested HLA-matched seropositive donors, positive: >10 spots/well and at least 3-fold negative control. Format: cell-based, human. The text has this: PHA was used as positive control.

Regarding “AEPNFPKNVW (listed as Human cytomegalovirus) [SEQ ID NO: 46]”, the “% Positive donors (after 12 days of stimulation)” value (“% Positive donors” below) amounted to 14.3% and the “Positive donors as tested” value is recorded as 2/14.
On the same counts, the results for “ALFNQLVFTA (listed as Human cytomegalovirus) [SEQ ID NO: 16]” are 13.3% and 2/15.
In the case of “ALLGRLYFI (listed as Human cytomegalovirus) [SEQ ID NO: 19]”, the “% Positive donors” value worked out at 6.7% and the “Positive donors as tested” value was 1/15.
On the same counts, the results for “ALSPSTSKV (listed as Human cytomegalovirus) [SEQ ID NO: 9]” are 23.5% and 4/17.
On the same counts, the results for “ALYPEYIYTV (listed as Human cytomegalovirus) [SEQ ID NO: 14]” are 16.7% and 3/18.
On the same counts, the results for “APFGRVSV (listed as Human cytomegalovirus) [SEQ ID NO: 35]” are 20.0% and 3/15.
Take “APNYRQVEL (listed as Human cytomegalovirus) [SEQ ID NO: 37]”: the “% Positive donors” value is 16.7% and the “Positive donors as tested” value was 2/12.
The corresponding values for “APYLRDTL (listed as Human cytomegalovirus) [SEQ ID NO: 39]” are 5.3% and 1/19.
On the same counts, the results for “DLDFGDLLKY (listed as Human cytomegalovirus) [SEQ ID NO: 65]” are 12.5% and 2/16.
The corresponding values for “EEATALGREL (listed as Human cytomegalovirus) [SEQ ID NO: 47]” are 10.0% and 1/10.
Consider “EEQDYRALL (listed as Human cytomegalovirus) [SEQ ID NO: 44]”, for which the “% Positive donors” value came to 33.3% and the “Positive donors as tested” value was 4/12.
The corresponding values for “FFPKLQGNY (listed as Human cytomegalovirus) [SEQ ID NO: 23]” are 16.7% and 2/12.
The corresponding values for “FISSKHTL (listed as Human cytomegalovirus) [SEQ ID NO: 84]” are 21.4% and 3/14.
The corresponding values for “FPAHDWPEV (listed as Human cytomegalovirus) [SEQ ID NO: 94]” are 13.3% and 2/15.
In the case of “FPDATVPATV (listed as Human cytomegalovirus) [SEQ ID NO: 96]”, the “% Positive donors” value stood at 6.7% and the “Positive donors as tested” value is recorded as 1/15.
On the same counts, the results for “FTDNVRFSV (listed as Human cytomegalovirus) [SEQ ID NO: 17]” are 7.8% and 1/13.
The corresponding values for “FVEGPGFMRY (listed as Human cytomegalovirus) [SEQ ID NO: 56]” are 35.7% and 5/14.
The corresponding values for “GLDQYLESV (listed as Human cytomegalovirus) [SEQ ID NO: 18]” are 7.8% and 1/13.
On to “GLLAHIPAL (listed as Human cytomegalovirus) [SEQ ID NO: 13]”, for which the “Positive donors as tested” value is given as 2/11.
As for “GLNERLLSV (listed as Human cytomegalovirus) [SEQ ID NO: 15]”, the “% Positive donors” value turned out to be 15.0% and the “Positive donors as tested” value is listed as 3/20.
The corresponding values for “GSDALPAGLY (listed as Human cytomegalovirus) [SEQ ID NO: 60]” are 18.8% and 3/16.
The corresponding values for “GVSSVTLLK (listed as Human cytomegalovirus) [SEQ ID NO: 73]” are 35.7% and 5/14.
Regarding “HLKLRPATF (listed as Human cytomegalovirus) [SEQ ID NO: 83]”, the “% Positive donors” value is 23.1% and the “Positive donors as tested” value was 3/13.
On to “IAIPHFMVV (listed as Human cytomegalovirus) [SEQ ID NO: 91]”, for which the “% Positive donors” value turned out to be 33.3% and the “Positive donors as tested” value is 5/15.
For “IPDYRSVSL (listed as Human cytomegalovirus) [SEQ ID NO: 34]”, the “% Positive donors” value was determined as 22.2% and the “Positive donors as tested” value was 4/18.
The corresponding values for “IPHNWFLQV (listed as Human cytomegalovirus) [SEQ ID NO: 92]” are 33.3% and 5/15.
Regarding “IPMTFVDRDSL (listed as Human cytomegalovirus) [SEQ ID NO: 30]”, the “% Positive donors” value was 35.7% and the “Positive donors as tested” value was 5/14.
The corresponding values for “IPPPQIPFV (listed as Human cytomegalovirus) [SEQ ID NO: 90]” are 40.0% and 6/15.
For “IPVERQAL (listed as Human cytomegalovirus) [SEQ ID NO: 36]”, the “% Positive donors” value worked out at 16.7% and the “Positive donors as tested” value is listed as 2/12.
Take “ISENGNLQVTY (listed as Human cytomegalovirus) [SEQ ID NO: 63]”: the “% Positive donors” value is given as 15.0% and the “Positive donors as tested” value is given as 3/20.
“KLGGALQAK (listed as Human cytomegalovirus) [SEQ ID NO: 70]”: the “% Positive donors” value was determined as 40.0% and the “Positive donors as tested” value is listed as 6/15.
For “LENGVTHRF (listed as Human cytomegalovirus) [SEQ ID NO: 49]”, the “% Positive donors” value is listed as 7.1% and the “Positive donors as tested” value is on record as 1/14.
The corresponding values for “LLDELGAVFGY (listed as Human cytomegalovirus) [SEQ ID NO: 62]” are 15.4% and 2/13.
As for “LPNDHHYAL (listed as Human cytomegalovirus) [SEQ ID NO: 38]”, the “% Positive donors” value was 5.9% and the “Positive donors as tested” value is reported as 1/17.
For the sequence “LPYLSAERTV (listed as Human cytomegalovirus) [SEQ ID NO: 97]”, the “% Positive donors” value is given as 6.7% and the “Positive donors as tested” value is reported as 1/15.
On the same counts, the results for “LYVGQFLAY (listed as Human cytomegalovirus) [SEQ ID NO: 21]” are 25.0% and 3/12.
The corresponding values for “MLRLLFTL (listed as Human cytomegalovirus) [SEQ ID NO: 86]” are 7.1% and 1/14.
On the same counts, the results for “MPVTHPPEV (listed as Human cytomegalovirus) [SEQ ID NO: 95]” are 13.3% and 2/15.
With “NYNEQHYRY (listed as Human cytomegalovirus) [SEQ ID NO: 20]”, the “Positive donors as tested” value is reported as 5/13.
On to “QLRSVIRAL (listed as Human cytomegalovirus) [SEQ ID NO: 85]”, for which the “% Positive donors” value worked out at 14.3% and the “Positive donors as tested” value is 2/14.
For “RENAGVALY (listed as Human cytomegalovirus) [SEQ ID NO: 45]”, the “% Positive donors” value was found to be 19.1% and the “Positive donors as tested” value is listed as 4/21.
On the same counts, the results for “REQAAIPQIY (listed as Human cytomegalovirus) [SEQ ID NO: 50]” are 6.3% and 1/16.
The corresponding values for “RLADVLIKR (listed as Human cytomegalovirus) [SEQ ID NO: 77]” are 15.4% and 2/13.
The corresponding values for “RLFDLPVYC (listed as Human cytomegalovirus) [SEQ ID NO: 6]” are 41.7% and 5/12.
As to “RSVRLPYMYK (listed as Human cytomegalovirus) [SEQ ID NO: 78]”, the “% Positive donors” value was determined as 13.3% and the “Positive donors as tested” value is on record as 2/15.
On the same counts, the results for “RTFAGTLSR (listed as Human cytomegalovirus) [SEQ ID NO: 76]” are 21.4% and 3/14.
Consider “RVDPNLRNR (listed as Human cytomegalovirus) [SEQ ID NO: 74]”, for which the “% Positive donors” value is 33.3% and the “Positive donors as tested” value is 5/15.
On the same counts, the results for “RVSQPSLIL (listed as Human cytomegalovirus) [SEQ ID NO: 32]” are 26.7% and 4/15.
The corresponding values for “RVYAYDTREK (listed as Human cytomegalovirus) [SEQ ID NO: 72]” are 36.4% and 4/11.
In the case of “SESLVAKRY (listed as Human cytomegalovirus) [SEQ ID NO: 48]”, the “% Positive donors” value came out at 10.0% and the “Positive donors as tested” value was 1/10.
Consider “SFFPKLQGNY (listed as Human cytomegalovirus) [SEQ ID NO: 22]”, for which the “% Positive donors” value was determined as 22.2% and the “Positive donors as tested” value is on record as 2/9.
